In ChEMBL document CHEMBL1201862, “PubChem BioAssay data set” (2004):
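Results reflect a 48-hour exposure of cells in 96-well plates to compound at five concentrations. GI50 = concentration required for 50% inhibition of growth.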 Calls of active or inactive are those of the source. No stated cut-off is given here; in the data, active = GI50 up to about 1.1 µM and inactive = higher.

Legend:
Test in all cases: NCI-60 cell line screen, 48 h
OVCAR-3 = tested on: OVCAR-3
CAKI-1 = tested on: CAKI-1
KM12 = tested on: KM12
A549 = tested on: A549
UACC-257 = tested on: UACC-257
SNB-75 = tested on: SNB-75
UACC-62 = tested on: UACC-62
COLO 205 = tested on: COLO 205
RXF 393 = tested on: RXF 393
HL-60 = tested on: HL-60
UO-31 = tested on: UO-31
SR = tested on: SR
Malme-3M = tested on: Malme-3M
OVCAR-8 = tested on: OVCAR-8
HOP-62 = tested on: HOP-62
SF-268 = tested on: SF-268
K562 = tested on: K562
EKVX = tested on: EKVX
CCRF-CEM = tested on: CCRF-CEM
TK-10 = tested on: TK-10
HCT-116 = tested on: HCT-116
RPMI-8226 = tested on: RPMI-8226
ACHN = tested on: ACHN
HT-29 = tested on: HT-29
SK-OV-3 = tested on: SK-OV-3
OVCAR-5 = tested on: OVCAR-5
MOLT-4 = tested on: MOLT-4
786-0 = tested on: 786-0
SNB-78 = tested on: SNB-78
M19-MEL = tested on: M19-MEL
SNB-19 = tested on: SNB-19
OVCAR-4 = tested on: OVCAR-4
A498 = tested on: A498
DMS-273 = tested on: DMS-273
U-251 = tested on: U-251
M14 = tested on: M14
SK-MEL-28 = tested on: SK-MEL-28
SF-295 = tested on: SF-295
IGROV-1 = tested on: IGROV-1
SF-539 = tested on: SF-539
HCT-15 = tested on: HCT-15
SN12C = tested on: SN12C
LOX IMVI = tested on: LOX IMVI
SK-MEL-2 = tested on: SK-MEL-2
SW-620 = tested on: SW-620
HCC 2998 = tested on: HCC 2998
KM-20L2 = tested on: KM-20L2
NCI-H460 = tested on: NCI-H460
SK-MEL-5 = tested on: SK-MEL-5
NCI-H23 = tested on: NCI-H23
DMS-114 = tested on: DMS-114
NCI-H522 = tested on: NCI-H522
NCI-H226 = tested on: NCI-H226
DLD-1 = tested on: DLD-1
HOP-92 = tested on: HOP-92
LXFL 529 = tested on: LXFL 529
PC-3 = tested on: PC-3
NCI/ADR-RES = tested on: NCI/ADR-RES
MCF7 = tested on: MCF7
HOP-18 = tested on: HOP-18
BT-549 = tested on: BT-549
Hs-578T = tested on: Hs-578T

In the case of `COC(=O)c1c(C)oc2ccc(OC(C)=O)cc12`, the GI50 (OVCAR-3) is reported as > 100 µM (inactive), the GI50 (CAKI-1) is reported as > 100 µM (inactive) and the GI50 (KM12) is reported as > 100 µM (inactive). The GI50 (A549) was > 100 µM (inactive), the GI50 (UACC-257) was > 100 µM (inactive) and the GI50 (SNB-75) was 34.8 µM (inactive). For the same compound, the GI50 (UACC-62) was 97.7 µM (inactive), the GI50 (COLO 205) was > 100 µM (inactive) and the GI50 (RXF 393) was > 100 µM (inactive). For the same compound, the GI50 (HL-60) was > 100 µM (inactive), the GI50 (UO-31) was 33.6 µM (inactive) and the GI50 (SR) was > 100 µM (inactive). For the same compound, the GI50 (Malme-3M) was > 100 µM (inactive), the GI50 (OVCAR-8) was > 100 µM (inactive) and the GI50 (HOP-62) was > 100 µM (inactive). The GI50 (SF-268) was 90.8 µM (inactive), the GI50 (K562) was > 100 µM (inactive) and the GI50 (EKVX) was 54.3 µM (inactive). For the same compound, the GI50 (CCRF-CEM) was > 100 µM (inactive), the GI50 (TK-10) was > 100 µM (inactive) and the GI50 (HCT-116) was > 100 µM (inactive). The GI50 (RPMI-8226) was > 100 µM (inactive), the GI50 (ACHN) was > 100 µM (inactive) and the GI50 (HT-29) was 83 µM (inactive). For the same compound, the GI50 (SK-OV-3) was > 100 µM (inactive), the GI50 (OVCAR-5) was > 100 µM (inactive) and the GI50 (MOLT-4) was > 100 µM (inactive). The GI50 (786-0) was > 100 µM (inactive), the GI50 (SNB-78) was > 100 µM (inactive) and the GI50 (M19-MEL) was > 100 µM (inactive). The GI50 (SNB-19) was > 100 µM (inactive), the GI50 (OVCAR-4) was > 100 µM (inactive) and the GI50 (A498) was > 100 µM (inactive). The GI50 (DMS-273) was > 100 µM (inactive), the GI50 (U-251) was > 100 µM (inactive) and the GI50 (M14) was > 100 µM (inactive). For the same compound, the GI50 (SK-MEL-28) was > 100 µM (inactive), the GI50 (SF-295) was > 100 µM (inactive) and the GI50 (IGROV-1) was > 100 µM (inactive). For the same compound, the GI50 (SF-539) was > 100 µM (inactive), the GI50 (HCT-15) was greater than 100 µM and the GI50 (SN12C) was > 100 µM (inactive). The GI50 (LOX IMVI) was > 100 µM (inactive), the GI50 (SK-MEL-2) was > 100 µM (inactive) and the GI50 (SW-620) was > 100 µM (inactive). For the same compound, the GI50 (HCC 2998) was 30.5 µM (inactive), the GI50 (KM-20L2) was > 100 µM (inactive) and the GI50 (NCI-H460) was > 100 µM (inactive). For the same compound, the GI50 (SK-MEL-5) was > 100 µM (inactive), the GI50 (NCI-H23) was > 100 µM (inactive) and the GI50 (DMS-114) was > 100 µM (inactive). For the same compound, the GI50 (NCI-H522) was > 100 µM (inactive) and the GI50 (NCI-H226) was > 100 µM (inactive).

In the case of `CCNC(=O)c1ccc(C)c(/N=N/N(C)C)c1`, the GI50 (OVCAR-3) is reported as > 100 µM (inactive), the GI50 (CAKI-1) is reported as > 100 µM (inactive) and the GI50 (KM12) is reported as > 100 µM (inactive). For the same compound, the GI50 (DLD-1) was > 100 µM (inactive), the GI50 (A549) was > 100 µM (inactive) and the GI50 (HOP-92) was > 100 µM (inactive). For the same compound, the GI50 (UACC-257) was > 100 µM (inactive), the GI50 (UACC-62) was > 100 µM (inactive) and the GI50 (UO-31) was > 100 µM (inactive). For the same compound, the GI50 (OVCAR-8) was > 100 µM (inactive), the GI50 (HOP-62) was > 100 µM (inactive) and the GI50 (SF-268) was 77.1 µM (inactive). For the same compound, the GI50 (EKVX) was > 100 µM (inactive), the GI50 (TK-10) was > 100 µM (inactive) and the GI50 (HCT-116) was > 100 µM (inactive). The GI50 (ACHN) was > 100 µM (inactive), the GI50 (HT-29) was > 100 µM (inactive) and the GI50 (LXFL 529) was > 100 µM (inactive). The GI50 (786-0) was > 100 µM (inactive), the GI50 (SNB-78) was > 100 µM (inactive) and the GI50 (M19-MEL) was > 100 µM (inactive). For the same compound, the GI50 (SNB-19) was > 100 µM (inactive), the GI50 (OVCAR-4) was > 100 µM (inactive) and the GI50 (DMS-273) was > 100 µM (inactive). For the same compound, the GI50 (U-251) was > 100 µM (inactive), the GI50 (M14) was > 100 µM (inactive) and the GI50 (SK-MEL-28) was > 100 µM (inactive). For the same compound, the GI50 (SF-295) was > 100 µM (inactive), the GI50 (IGROV-1) was > 100 µM (inactive) and the GI50 (SF-539) was > 100 µM (inactive). For the same compound, the GI50 (HCT-15) was greater than 100 µM, the GI50 (SN12C) was > 100 µM (inactive) and the GI50 (LOX IMVI) was > 100 µM (inactive). The GI50 (SK-MEL-2) was > 100 µM (inactive), the GI50 (SW-620) was > 100 µM (inactive) and the GI50 (HCC 2998) was > 100 µM (inactive). For the same compound, the GI50 (KM-20L2) was > 100 µM (inactive), the GI50 (NCI-H460) was > 100 µM (inactive) and the GI50 (SK-MEL-5) was > 100 µM (inactive). The GI50 (NCI-H23) was > 100 µM (inactive) and the GI50 (NCI-H522) was 81.1 µM (inactive).

`COc1cc(CNc2ccc(SC)cc2)cc(OC)c1OC` was tested, and the GI50 (OVCAR-3) was 3.68 µM (inactive), the GI50 (PC-3) was 6.95 µM (inactive) and the GI50 (A549) was 8.41 µM (inactive). The GI50 (COLO 205) was 3.47 µM (inactive), the GI50 (NCI/ADR-RES) was 3.15 µM (inactive) and the GI50 (HL-60) was 2.55 µM (inactive). For the same compound, the GI50 (UO-31) was 10.9 µM (inactive), the GI50 (Malme-3M) was 7.29 µM (inactive) and the GI50 (EKVX) was 27.1 µM (inactive). For the same compound, the GI50 (CCRF-CEM) was 6.65 µM (inactive), the GI50 (MCF7) was 3.36 µM (inactive) and the GI50 (HCT-116) was 4.71 µM (inactive). For the same compound, the GI50 (RPMI-8226) was 8.57 µM (inactive), the GI50 (HT-29) was 3.35 µM (inactive) and the GI50 (LXFL 529) was 12.6 µM (inactive). For the same compound, the GI50 (HOP-18) was 22.6 µM (inactive), the GI50 (OVCAR-5) was 17.2 µM (inactive) and the GI50 (MOLT-4) was 5.6 µM (inactive). For the same compound, the GI50 (786-0) was 8.2 µM (inactive), the GI50 (SNB-78) was 53.8 µM (inactive) and the GI50 (OVCAR-4) was 27 µM (inactive). For the same compound, the GI50 (A498) was 13.6 µM (inactive), the GI50 (DMS-273) was 4.48 µM (inactive) and the GI50 (M14) was 3.27 µM (inactive). For the same compound, the GI50 (BT-549) was 1.63 µM (inactive), the GI50 (HCT-15) was 4.23 µM and the GI50 (LOX IMVI) was 5.75 µM (inactive). For the same compound, the GI50 (SK-MEL-2) was 6.27 µM (inactive), the GI50 (Hs-578T) was 11 µM (inactive) and the GI50 (SW-620) was 3.46 µM (inactive). The GI50 (KM-20L2) was 4.31 µM (inactive), the GI50 (NCI-H460) was 4.38 µM (inactive) and the GI50 (DMS-114) was 3.37 µM (inactive). The GI50 (NCI-H522) was 2.88 µM (inactive).
